Assay results from patent publication EP2794556B1, “BIS-(ARYL/HETEROARYL)-METHYLENE COMPOUNDS, PHARMACEUTICAL COMPOSITIONS CONTAINING SAME AND THEIR USE FOR TREATING CANCER” (Gleason, James L., priority 2011, dated 2013).
Read-outs that look alike come from different tables or passages of the source.

Columns and labels:
SCC4 cells [1] = assay: MTS cell proliferation assay; assay type: cell-based, human; details: vitamin D resistant SCC4 cells, Figures 7c, 8 and 9
Description: Dose-dependent effects of compounds on cell cycle progression was monitored using a CellTiter 96 Aqueous Non-Radioactive Cell Proliferation Assay Kit (Promega). The assay composed of solutions of a novel tetrazolium compound (MTS) and an electron coupling reagent (phenazine methosulfate; PMS). MTS is reduced by metabolically active cells into a soluble formazan product that absorbs at 490nm. The quantity of formazan product absorbing at 490nm is directly proportional to the number of living cells.

SCC4 cells [2] = assay: LDH cytotoxicity assay; assay type: cell-based, human; details: vitamin D resistant SCC4 cells, Figures 10 and 11
Method: The cytotoxic effects of compounds were screened using a Cytotoxicity Assay Kit (Cayman Chemical), which measures release of the soluble […] enzyme lactate dehydrogenase (LDH) from dying cells into the culture medium using a coupled two-step reaction. LDH in the media catalyzes the reduction of NAD+ to NADH and H+ by oxidation of lactate to pyruvate. LDH-catalyzed NADH production is then measured by following diaphorase catalyzed NADH-dependent reduction of a tetrazolium salt (INT) to highly-colored formazan which absorbs strongly at 490-520 nm.
The proliferation assays above indicated the cessation of growth.

HDAC6 = target: T1, HDAC6 (Homo sapiens, UniProt Q9UBN7); assay: Fluorogenic HDAC inhibition assay, purified enzyme
T1 sequence (Q9UBN7 1-1215): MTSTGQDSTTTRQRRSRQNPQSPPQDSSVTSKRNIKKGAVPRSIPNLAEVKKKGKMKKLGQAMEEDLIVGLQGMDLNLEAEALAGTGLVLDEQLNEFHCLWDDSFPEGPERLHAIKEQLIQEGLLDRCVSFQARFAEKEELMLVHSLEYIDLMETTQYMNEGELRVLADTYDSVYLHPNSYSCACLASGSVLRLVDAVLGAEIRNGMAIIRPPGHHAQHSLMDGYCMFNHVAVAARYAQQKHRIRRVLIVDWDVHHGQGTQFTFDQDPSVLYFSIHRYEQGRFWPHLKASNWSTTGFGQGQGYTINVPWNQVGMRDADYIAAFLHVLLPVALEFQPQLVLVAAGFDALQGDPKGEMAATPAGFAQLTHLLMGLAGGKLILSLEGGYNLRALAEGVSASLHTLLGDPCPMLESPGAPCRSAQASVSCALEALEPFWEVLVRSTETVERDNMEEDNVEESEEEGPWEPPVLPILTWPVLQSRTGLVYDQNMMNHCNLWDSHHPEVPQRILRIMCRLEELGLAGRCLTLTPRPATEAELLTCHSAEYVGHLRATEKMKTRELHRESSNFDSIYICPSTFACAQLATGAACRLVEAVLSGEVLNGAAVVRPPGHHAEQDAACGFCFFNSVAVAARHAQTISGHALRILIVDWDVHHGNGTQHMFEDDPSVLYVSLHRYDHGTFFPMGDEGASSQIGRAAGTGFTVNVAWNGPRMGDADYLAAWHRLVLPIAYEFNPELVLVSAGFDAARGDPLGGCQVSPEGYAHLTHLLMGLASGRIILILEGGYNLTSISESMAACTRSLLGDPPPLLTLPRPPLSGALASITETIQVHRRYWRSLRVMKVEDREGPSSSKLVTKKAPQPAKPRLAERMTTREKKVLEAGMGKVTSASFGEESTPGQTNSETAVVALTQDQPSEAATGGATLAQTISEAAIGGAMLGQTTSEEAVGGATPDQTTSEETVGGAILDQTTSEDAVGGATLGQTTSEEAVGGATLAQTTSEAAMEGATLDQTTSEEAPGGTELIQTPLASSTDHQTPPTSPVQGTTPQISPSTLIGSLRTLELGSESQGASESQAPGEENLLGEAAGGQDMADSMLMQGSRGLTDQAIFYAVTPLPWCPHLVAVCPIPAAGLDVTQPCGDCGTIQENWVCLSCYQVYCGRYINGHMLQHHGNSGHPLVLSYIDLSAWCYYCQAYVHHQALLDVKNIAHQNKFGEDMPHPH
Method: (§3) Fluorogenic HDAC inhibition assay. Boc-Lys(Ac)-7-amino-4-methylcoumarin (Boc-Lys(Ac)-AMC) was used as substrate for the HDAC assays. […] Trypsin was used to stop the reaction, releasing free AMC. The trypsin solution was prepared as follow: trypsin was dissolved in HDAC buffer to give a concentration of 10 mg/mL. Release of AMC was monitored by measuring the fluorescence at 460 nm (lex = 390 nm) with a microplate reader (SpectraMax Gemini) at 37 °C. The AMC signals were recorded against a blank with buffer, substrate and trypsin but without the enzyme. All experiments were carried out at least in triplicate.
(§4) For standard HDAC assays, 50 µL of HDAC buffer was mixed with 10 µL of diluted enzyme solution in HDAC buffer at room temperature. The HDAC reaction was started by adding 40 µL of substrate solution in HDAC buffer followed by 30 min of incubation with stirring at 37 °C. The reaction was stopped by adding 100 µL of trypsin solution. After a 10 min incubation with stirring at 37 °C, the release of AMC was monitored by measuring the fluorescence. For HDAC inhibition assays, inhibitor diluted in 50 µL of HDAC buffer was mixed with 10 µL of diluted enzyme solution in HDAC buffer at room temperature. The HDAC reaction was started by adding 40 µL of substrate solution in HDAC buffer followed by 30 min of incubation with stirring at 37 °C. The reaction was stopped by adding 100 µL of trypsin solution. After a 10 min incubation with stirring at 37 °C, the release of AMC was monitored by measuring the fluorescence.

VDR [3] = target: T2, VDR (Homo sapiens, UniProt P11473); assay: VDR agonism by induction of CYP24 gene expression (RT/PCR); assay type: cell-based; details: for induction of CYP24 by the compound was blocked: Fig. 1c, blocking agent not given; for VDR agonist activity and potency, induction of CYP24 gene expression / VDR agonism by induction of CYP24 gene expression: SCC25 cells; for VDR agonist activity and potency, induction of CYP24 gene expression: Fig. 1b, 1d; for VDR agonism by induction of CYP24 gene expression: screen at 10 µM, Fig. 1a
T2 construct: endogenous in cells; host or cells: SCC25 human head and neck squamous carcinoma cells
T2 sequence (P11473 1-427): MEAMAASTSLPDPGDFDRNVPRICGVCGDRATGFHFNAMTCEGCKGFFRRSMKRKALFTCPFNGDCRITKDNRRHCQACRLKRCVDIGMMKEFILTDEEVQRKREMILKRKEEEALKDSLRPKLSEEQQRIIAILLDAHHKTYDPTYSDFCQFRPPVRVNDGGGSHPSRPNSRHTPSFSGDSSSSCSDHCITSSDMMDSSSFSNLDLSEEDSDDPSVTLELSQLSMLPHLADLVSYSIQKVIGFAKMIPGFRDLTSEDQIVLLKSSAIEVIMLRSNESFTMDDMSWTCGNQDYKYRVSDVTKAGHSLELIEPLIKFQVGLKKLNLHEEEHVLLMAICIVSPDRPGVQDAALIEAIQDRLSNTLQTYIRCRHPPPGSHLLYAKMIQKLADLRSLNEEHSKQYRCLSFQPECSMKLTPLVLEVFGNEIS
Method: Cell culture. Human head and neck squamous carcinoma cell lines SCC4 and SCC45 and mouse HNSCC line AT84 were purchased from American Type Culture Collection (Manassas, VA) and cultured under recommended conditions. Cells were split at 60-70% confluence, as follows: cells were washed with filtered PBS, split with a 5-10 min incubation with 1 ml Trypsin-EDTA (Invitrogen, Carlsbad, CA) in PBS, collected with medium. Following centrifugation, the supernatant was removed. Cell pellets were resuspended with DMEM-F12, and distributed on fresh media-containing dishes. For treatments, AT84 cells were split and 24h later medium was changed to DMEM + 10% charcoal-stripped FBS.
RNA isolation and RT/PCR analysis. […]. Proc. Nat. Acad. Sci. U.S.A. 105, 8250-55. and Lamblin, M.et al Bioorganic & Medicinal Chemistry (2010) 18:4119-4137. After treatment, cells were washed with PBS, homogenized with 1ml TRIzol Reagent (Invitrogen, Carlsbad, CA), kept at room temperature for 2-5 min, collected and kept at -80 °C for at least 1h. After, thawing 0.2 ml chloroform was added. After vigorous mixing and storing for 10min, mixtures were centrifuged (10,000rpm, 15 min, 4 °C) and the upper transparent layer was transferred to a new tube. 0.5 ml isopropanol was added and the new solution was mixed. After centrifuging at 4 °C, the supernatant was discarded and 1ml of 75% ethanol was added. After centrifuging and discarding the supernatant, the pellet was air-dried for 5-10 min, and then dissolved in ddH2O. RNA concentrations were measured using a spectrophotometer, and 1-3µg of RNA were loaded for reverse transcriptase reactions (total volume: 20 µl). 80µl of ddH2O was added to the RT-product, and 1.5µl of that was used as template for the PCR reaction. Reverse transcriptase (Super Script II) was purchased from Invitrogen (Carlsbad, CA). DNA polymerase and dNTP's were ordered from Fermentas (Glen Burnie, MD).
(§1) Test compounds (10 µM) were first screened for VDR agonism by analysis of induction of CYP24 gene expression in 1,25D-sensitive human SCC25 cells. […]. Consistent with binding to the VDR, induction of CYP24 by compound JF-B01, compound JF-B53 or compound 16 (JF-B54) was blocked (Fig. 1c). […]

SCC4 cells [4] = assay: EdU cell growth assay; details: for inhibition of proliferation, EdU incorporation: 1,25D-resistant SCC4 cells, Fig. 2e, f
Method: (§5) EdU cell growth assay. Click-iT EdU Alexa Fluor high-throughput imaging (HCS) assay for cell proliferation. HCS assays were performed on AT84 mouse squamous carcinoma cell line (ATCC) following the manufacturer's instruction (Molecular Probes, Invitrogen). […] All samples were in triplicate.

HDAC3 = HDAC3 (Homo sapiens, UniProt O15379); assay: Fluorogenic HDAC inhibition assay, purified enzyme
Sequence of HDAC3 (O15379 whole entry, species assumed): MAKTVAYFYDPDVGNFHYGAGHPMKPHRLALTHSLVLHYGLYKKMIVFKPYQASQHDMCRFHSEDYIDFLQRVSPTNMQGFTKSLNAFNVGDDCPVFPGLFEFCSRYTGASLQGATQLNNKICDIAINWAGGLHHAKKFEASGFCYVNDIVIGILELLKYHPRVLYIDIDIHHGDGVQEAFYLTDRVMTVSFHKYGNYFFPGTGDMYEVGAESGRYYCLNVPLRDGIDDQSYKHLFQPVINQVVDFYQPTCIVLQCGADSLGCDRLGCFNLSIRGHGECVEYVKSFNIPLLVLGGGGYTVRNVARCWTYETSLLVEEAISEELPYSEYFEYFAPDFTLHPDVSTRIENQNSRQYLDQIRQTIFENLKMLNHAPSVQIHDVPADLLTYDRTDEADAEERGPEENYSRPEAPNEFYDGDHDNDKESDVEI
Sequence of HDAC3 (Q9Y618 395-489 partner limits assumed, species assumed): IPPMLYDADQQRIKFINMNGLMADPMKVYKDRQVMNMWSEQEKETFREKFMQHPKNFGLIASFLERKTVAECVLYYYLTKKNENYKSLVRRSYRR
Method: as §3, §4

VDR [5] = target: T2, VDR; assay: Chromatin immunoprecipitation (ChIP) assay, CYP24 promoter, SCC25 cells; assay type: cell-based; details: Fig. 1e
Method: Chromatin immunoprecipitation assays. ChIP assays were performed with sonicated extracts of SCC25 cells as described (see Wang, T.-T. et al. J Immunol (2004) 173:2909-2912). […] Immunoprecipitations were performed using normal rabbit IgG, anti-VDR antibody (c-20) (Santa Cruz Biotechnology, Santa Cruz, CA). […].
as §1

AT84 cells = assay: EdU cell growth assay; details: 1,25D-sensitive AT84 cells, Fig. 2d
Method: as §5

[6] = system: total intracellular HDAC activity in SCC25 cells; assay: HDACi activity with fluorogenic substrate in live cells; assay type: cell-based, human; details: increasing concentration, Fig. 2a, b
Description: (§2) This assay measures the inhibition of total intracellular HDAC activity and determines the capacity of compounds to inhibit HDACs in the form of their naturally occurring complexes.

[7] = system: total intracellular HDAC activity in SCC4 cells; assay: as above; assay type: cell-based, human; details: increasing concentration, Fig. 2a, b
Description: as §2

SCC25 cells = assay: EdU cell growth assay; details: higher concentrations
Method: as §5

Row | SMILES | antiproliferative potency (SCC4 cells [1]) | cytotoxicity, LDH release (SCC4 cells [2]) | IC50 (HDAC6) | VDR agonist activity and potency, induction of CYP24 gene expression (VDR [3]) | inhibition of proliferation, EdU incorporation (SCC4 cells [4]) | IC50 (HDAC3) | other results
1 | CCC(CC)(c1ccc(OCC(=O)NO)cc1)c1ccc(OCC(O)C(C)(C)C)c(C)c1 (stereo not shown) [DK-366, N-hydroxy-2-(4-(3-(4-(2-hydroxy-3,3-dimethylbutoxy)-3-methylphenyl)pentan-3-yl)phenoxy)acetamide] | low micromolar potency | good cytotoxicity | 6.6 to 8.2 µM |  |  |  | 
2 | CCC(CC)(c1ccc(OCC(O)C(C)(C)C)c(C)c1)c1ccc(OCC(=O)NO)c(Br)c1 (stereo not shown) [DK-309, 2-(2-bromo-4-(3-(4-(2-hydroxy-3,3-dimethylbutoxy)-3-methylphenyl)pentan-3-yl)phenoxy)-N-hydroxyacetamide] |  | good cytotoxicity |  |  |  |  | 
3 | CCC(CC)(c1ccc(OCC(=O)NO)c(C)c1)c1ccc(OCC(C)(C)O)c(C)c1 [JF-B53, N-Hydroxy-2-(4-(3-(4-(2-hydroxy-2-methylpropoxy)-3-methylphenyl)pentan-3-yl)-2-methylphenoxy)acetamide] |  |  | 33.3 µM | VDR agonist activity, but with reduced potency | partially blocked EdU incorporation | 17 µM | induction of CYP24 by the compound was blocked (VDR [3]): blocked
4 | CCC(CC)(c1ccc(OCC(=O)NO)c(C)c1)c1ccc(OC[C@H](O)C(C)(C)C)c(C)c1 [JF-C71, N-Hydroxy-2-(4-(3-(4-((2R)-hydroxy-3,3-dimethylbutoxy)-3-methylphenyl)pentan-3-yl)-2-methylphenoxy)acetamide] | low micromolar potency |  | 26.1 µM | VDR agonists with similar potencies |  | 22 µM | binding of the VDR to the vitamin D response element in the proximal promoter of the CYP24 gene (VDR [5]): induced binding of the VDR
5 | CCC(CC)(c1ccc(OCC(=O)NO)c(C)c1)c1ccc(OCC(CO)CO)c(C)c1 [JF-B21] |  |  | 37.9 µM |  | failed to block SCC4 proliferation | 36.1 µM | VDR agonism by induction of CYP24 gene expression (VDR [3]): completely inactive; inhibition of proliferation, EdU incorporation (AT84 cells): failed to block AT84 proliferation
6 | CCC(CC)(c1ccc(OCC(O)C(C)(C)C)c(C)c1)c1c[nH]c2cc(CCC(=O)NO)ccc12 (stereo not shown) [DK-222, N-hydroxy-3-(3-(3-(4-(2-hydroxy-3,3-dimethylbutoxy)-3-methylphenyl)pentan-3-yl)-1H-indol-6-yl)propanamide] | low micromolar potency | good cytotoxicity |  |  |  |  | 
7 | CCC(CC)(c1ccc(OCC(=O)NO)c(C)c1)c1ccc(OC[C@@H](O)C(C)(C)C)c(C)c1 [JF-C72, N-Hydroxy-2-(4-(3-(4-((2S)-hydroxy-3,3-dimethylbutoxy)-3-methylphenyl)pentan-3-yl)-2-methylphenoxy)acetamide] | low micromolar potency |  |  | VDR agonists with similar potencies |  |  | binding of the VDR to the vitamin D response element in the proximal promoter of the CYP24 gene (VDR [5]): induced binding of the VDR
8 | CCC(O)(CC)COc1ccc(C(CC)(CC)c2ccc(OCC(=O)NO)c(C)c2)cc1C [JF-B54, 2-(4-(3-(4-(2-Ethyl-2-hydroxybutoxy)-3-methylphenyl)pentan-3-yl)-2-methylphenoxy)-N-hydroxyacetamide] |  |  | 31.5 µM | VDR agonist activity, but with reduced potency | completely | 29.9 µM | induction of CYP24 by the compound was blocked (VDR [3]): blocked; HDACi activity, substrate deacetylation [6]: most potent; HDACi activity, substrate deacetylation [7]: most potent; EdU incorporation at higher concentrations (SCC25 cells): completely abolished EdU incorporation; EdU incorporation at higher concentrations (SCC4 cells [4]; SCC4 cells, higher concentrations): completely abolished EdU incorporation
9 | CCC(CC)(c1ccc(OCC(=O)NO)c(C)c1)c1ccc(OCC(=O)NO)c(C)c1 [JF-B06] |  |  | 4.7 µM |  |  |  | VDR agonism by induction of CYP24 gene expression (VDR [3]): completely inactive; inhibition of proliferation, EdU incorporation (AT84 cells): failed to block AT84 proliferation; IC50 (HDAC6; read-out: HDAC6 IC50, purified enzyme in vitro): 4.7 µM
